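Here, GI50 denotes the concentration required for 50% inhibition of growth. The concentration for full growth arrest is given as TGI.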
Tests used:
Test in all cases: growth of human tumour cells (NCI), 384-well format
SK-OV-3 ovarian = system: SK-OV-3 ovarian
OVCAR-8 ovarian = system: OVCAR-8 ovarian
U251 glioblastoma = system: U251 glioblastoma
SN12C renal = system: SN12C renal
MALME-3M melanoma = system: MALME-3M melanoma
HS 578T breast = system: HS 578T breast
LOX IMVI melanoma = system: LOX IMVI melanoma
TK-10 renal = system: TK-10 renal
UACC-257 melanoma = system: UACC-257 melanoma
OVCAR-5 ovarian = system: OVCAR-5 ovarian
DU-145 prostate = system: DU-145 prostate
786-0 renal = system: 786-0 renal
RXF 393 renal = system: RXF 393 renal
ACHN renal = system: ACHN renal
T-47D breast = system: T-47D breast
BT-549 breast = system: BT-549 breast
HT29 colon = system: HT29 colon
KM12 colon = system: KM12 colon
UO-31 renal = system: UO-31 renal
IGROV1 ovarian = system: IGROV1 ovarian
NCI-H322M lung = system: NCI-H322M lung
MCF7 breast = system: MCF7 breast
MDA-MB-435 melanoma = system: MDA-MB-435 melanoma
NCI-H522 lung = system: NCI-H522 lung
SK-MEL-5 melanoma = system: SK-MEL-5 melanoma
NCI-H226 lung = system: NCI-H226 lung
MDA-MB-468 breast = system: MDA-MB-468 breast
A549 NSCLC = system: A549 NSCLC
SNB-75 CNS = system: SNB-75 CNS
M14 melanoma = system: M14 melanoma
SF-295 CNS = system: SF-295 CNS
HL-60(TB) leukemia = system: HL-60(TB) leukemia
OVCAR-3 ovarian = system: OVCAR-3 ovarian
MOLT-4 leukemia = system: MOLT-4 leukemia
SNB-19 CNS = system: SNB-19 CNS
PC-3 prostate = system: PC-3 prostate
A498 renal = system: A498 renal
HCT-15 colon = system: HCT-15 colon
OVCAR-4 ovarian = system: OVCAR-4 ovarian
SF-539 CNS = system: SF-539 CNS
RPMI-8226 leukemia = system: RPMI-8226 leukemia
SK-MEL-28 melanoma = system: SK-MEL-28 melanoma
HCC-2998 colon = system: HCC-2998 colon
SF-268 CNS = system: SF-268 CNS
CAKI-1 renal = system: CAKI-1 renal
HOP-92 NSCLC = system: HOP-92 NSCLC
CCRF-CEM leukemia = system: CCRF-CEM leukemia
K-562 leukemia = system: K-562 leukemia
NCI/ADR-RES ovarian = system: NCI/ADR-RES ovarian
HOP-62 NSCLC = system: HOP-62 NSCLC
EKVX NSCLC = system: EKVX NSCLC
HCT-116 colon = system: HCT-116 colon
SW-620 colon = system: SW-620 colon
NCI-H23 lung = system: NCI-H23 lung
NCI-H460 NSCLC = system: NCI-H460 NSCLC
MDA-MB-231 breast = system: MDA-MB-231 breast
COLO 205 colon = system: COLO 205 colon
UACC-62 melanoma = system: UACC-62 melanoma

## O=C(c1ccc(F)c(F)c1Nc1ccc(I)cc1F)N1CC(O)([C@H]2CCCCN2)C1
SK-OV-3 ovarian
  GI50: 4990 nM
  TGI: 17800 nM
OVCAR-8 ovarian
  GI50: 6520 nM
  TGI: 19600 nM
U251 glioblastoma
  GI50: 2570 nM
  TGI: 11300 nM
SN12C renal
  GI50: 1520 nM
  TGI: 13200 nM
MALME-3M melanoma
  GI50: 31.8 nM
  TGI: 118 nM
HS 578T breast
  GI50: 4160 nM
  TGI: 16300 nM
LOX IMVI melanoma
  GI50: 389 nM
  TGI: 1660 nM
TK-10 renal
  GI50: 3120 nM
  TGI: 11800 nM
UACC-257 melanoma
  GI50: 156 nM
  TGI: 428 nM
OVCAR-5 ovarian
  GI50: 668 nM
  TGI: 11900 nM
DU-145 prostate
  GI50: 3810 nM
  TGI: 14800 nM
786-0 renal
  GI50: 1240 nM
  TGI: 2590 nM
RXF 393 renal
  GI50: 1510 nM
  TGI: 3180 nM
ACHN renal
  GI50: 1870 nM
  TGI: 15400 nM
T-47D breast
  GI50: 2650 nM
  TGI: 6460 nM
BT-549 breast
  GI50: 2250 nM
  TGI: 5840 nM
HT29 colon
  GI50: 185 nM
  TGI: 1350 nM
KM12 colon
  GI50: 660 nM
  TGI: 2750 nM
UO-31 renal
  GI50: 1610 nM
  TGI: 5390 nM
IGROV1 ovarian
  GI50: 500 nM
  TGI: 2990 nM
NCI-H322M lung
  GI50: 1510 nM
  TGI: 13700 nM
MCF7 breast
  GI50: 1880 nM
  TGI: 3620 nM
MDA-MB-435 melanoma
  GI50: 415 nM
  TGI: 11600 nM
NCI-H522 lung
  GI50: 4330 nM
  TGI: 16900 nM
SK-MEL-5 melanoma
  GI50: 281 nM
  TGI: 1620 nM
NCI-H226 lung
  GI50: 1640 nM
  TGI: 10200 nM
MDA-MB-468 breast
  GI50: 2730 nM
  TGI: 5070 nM
A549 NSCLC
  GI50: 807 nM
  TGI: 2610 nM
SNB-75 CNS
  GI50: 1620 nM
  TGI: 4340 nM
M14 melanoma
  GI50: 51.2 nM
  TGI: 220 nM
SF-295 CNS
  GI50: 13400 nM
  TGI: 26300 nM
HL-60(TB) leukemia
  GI50: 212 nM
  TGI: 1260 nM
OVCAR-3 ovarian
  GI50: 3430 nM
  TGI: 13700 nM
MOLT-4 leukemia
  GI50: 1620 nM
  TGI: 3000 nM
SNB-19 CNS
  GI50: 4050 nM
  TGI: 17300 nM
PC-3 prostate
  GI50: 5640 nM
  TGI: 16800 nM
A498 renal
  GI50: 1220 nM
  TGI: 2500 nM
HCT-15 colon
  GI50: 3330 nM
  TGI: 14500 nM
OVCAR-4 ovarian
  GI50: 10400 nM
  TGI: 22200 nM
SF-539 CNS
  GI50: 1620 nM
  TGI: 3020 nM
RPMI-8226 leukemia
  GI50: 1780 nM
  TGI: 4380 nM
SK-MEL-28 melanoma
  GI50: 187 nM
  TGI: 528 nM
HCC-2998 colon
  GI50: 200 nM
  TGI: 1210 nM
SF-268 CNS
  GI50: 1700 nM
  TGI: 5370 nM
CAKI-1 renal
  GI50: 994 nM
  TGI: 14400 nM
HOP-92 NSCLC
  GI50: 888 nM
  TGI: 2170 nM
CCRF-CEM leukemia
  GI50: 1930 nM
  TGI: 3570 nM
K-562 leukemia
  GI50: 1170 nM
  TGI: 2420 nM
NCI/ADR-RES ovarian
  GI50: 9210 nM
  TGI: 21300 nM
HOP-62 NSCLC
  GI50: 1280 nM
  TGI: 8420 nM
EKVX NSCLC
  GI50: 2750 nM
  TGI: 12600 nM
HCT-116 colon
  GI50: 615 nM
  TGI: 2060 nM
SW-620 colon
  GI50: 371 nM
  TGI: 10400 nM
NCI-H23 lung
  GI50: 422 nM
  TGI: 2050 nM
NCI-H460 NSCLC
  GI50: 995 nM
  TGI: 2280 nM
MDA-MB-231 breast
  GI50: 477 nM
  TGI: 3630 nM
COLO 205 colon
  GI50: 101 nM
  TGI: 589 nM
UACC-62 melanoma
  GI50: 104 nM
  TGI: 378 nM
